This passage reports TGI results from PubChem BioAssay (NCI).

Holding throughout (assay): inhibition of tumour cell growth, NCI panel, 48 h
The subject of test [1] is OVCAR-5 ovarian.
In test [2] the test system is MDA-MB-231 breast.
The test system of test [3] is NCI-H23 lung.
Test [4] deals with SK-MEL-28 melanoma.
The subject of test [5] is NCI/ADR-RES ovarian.
Test [6] relates to SK-MEL-2 melanoma.
Test [7] deals with A498 renal.
Test [8] deals with OVCAR-3 ovarian.
The test system of test [9] is EKVX NSCLC.
The test system of test [10] is SF-295 CNS.

The structures appear in SMILES notation.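 Where inhibition never reached the appropriate level, the endpoint shown equals the highest concentration tested. Otherwise, values were interpolated linearly from a five-concentration, 48-hour dose response in 96-well plates. TGI: concentration producing complete growth inhibition.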

In the case of `CC(=O)NC1C(OCc2ccccc2)OC(CO)C(O)C1OC(C)C(=O)N[C@@H](C)C(=O)N[C@H](CCC(=O)NCCNCCNc1c2ccccc2nc2cccc([N+](=O)[O-])c12)C(N)=O` (stereo not given in full), the TGI in test [1] was determined as 5.19 µM; in test [2], 0.639 µM; in [3], 0.0902 µM; in test [4], 0.723 µM; in test [5] it was 10.6 µM; in test [6], 0.138 µM. The TGI in test [7] amounted to 0.32 µM; in [8], 4.44 µM; in [9] it was 2.74 µM; in test [10] it was 1.79 µM.
`Nc1c(C(=O)c2ccc(Cl)c(Cl)c2)[nH]c(NCc2ccccc2)c1C(=S)Nc1ccccc1`: the TGI in [1] was determined as 28.2 µM; in [2], 17.6 µM; in test [3], 41.6 µM; in [4], 18.9 µM; in test [5], 4.72 µM; in test [6], 25.9 µM. The TGI in [7] was 31.5 µM; in test [8], 38.5 µM; in test [9] it was 29.6 µM; in [10], 15 µM.
Regarding `Cc1c(C)c2c(c(N)c1C#N)C(=O)N(N)C2=O`, the TGI in [1], in [2], in [3], in [4], in test [5] and in [6] was > 100 µM throughout. Moreover, the TGI in [7], in test [8], in test [9] and in test [10] was > 100 µM each time.
As to `CN1CCN(C(=O)c2cn(Cc3cncn3Cc3ccc4c(c3)OCO4)cc2-c2cccc3ccccc23)CC1`, the TGI is > 100 µM in test [1]; 33.3 µM in test [2]; > 89.7 µM in [3]; 63.6 µM in test [4]; > 100 µM in test [5]; 20.8 µM in test [6]. In addition, the TGI in test [7] was 32.1 µM; in test [8], > 91.3 µM; in test [9], > 100 µM; in test [10], 70.6 µM.
For `COc1cc2c(/C=C3/C(=O)Nc4ccccc43)c(Cl)n(Cc3ccc(Cl)cc3)c2cc1C`, the TGI is 8.84 µM in test [1]; 0.754 µM in [2]; 0.644 µM in test [3]; 22.9 µM in [4]; 0.612 µM in test [5]; 17.3 µM in test [6]. The TGI in test [7] was found to be 3.4 µM; in test [8] it was 0.432 µM; in [9], 44.9 µM; in test [10], 3.06 µM.
On to `NC(=O)[C@H](Cc1ccc(O)cc1)Nc1c(O)c2c(c(O)c1Cl)C(=O)C=CC2=O`, for which the TGI was > 10 µM in [1]; 5.23 µM in test [2]; > 8.2 µM in test [3]; 4.64 µM in [4]; > 7.25 µM in [5]; > 10 µM in [6]. Also, the TGI in [7] is > 10 µM; in [8], > 5.74 µM; in test [9] it was > 10 µM; in test [10], > 10 µM.
